Experimental data from patent US8247615B2, “Process of converting esterified xanthophylls from Capsicum to non-esterified xanthophylls in high yields and purities” (Kalamazoo Holdings, Inc., priority 2010, dated 2012).
Converted amounts (≈) assume the structure as drawn. “Also recorded” adds a separate entry of the source.

Key:
Type in all cases: physicochemical
[1] = Stability of cis and trans isomers of zeaxanthin to the analytical sample preparation conditions; settings: analytical saponification in refrigerator, between 2 and 119 hours
Procedure: […]
Using the sample preparation conditions above, duplicate samples were prepared from the same oleoresin and each were split into seven separate vials and then stored in the refrigerator. A vial from each of the duplicate samples was removed at various times and analyzed by HPLC. […] We therefore conclude that our sample preparation and analysis conditions are not changing the amounts of the two isomers and that the amounts measured are the amounts in the samples prior to sample preparation and analysis.

[2] = Stability of zeaxanthin to saponification / reflux in caustic aqueous methanolic potassium hydroxide
Procedure: In a procedure similar to that described in Example 2 after distilling away the hexane, the mixture was refluxed for a total of 40 hours and the content of zeaxanthin isomers was monitored by HPLC as a function of time. After refluxing for 40 hours the mixture was allowed to cool, then centrifuged to afford a supernatant and a crude precipitate. The crude precipitate was washed with methanol (4× by weight of crude precipitate) centrifuged and decanted to afford a wash solution and a refined precipitate. After desolventization, the powder was 59.0% pure zeaxanthin corresponding to a yield of 71%. The supernatant and the wash solution were both analyzed for zeaxanthin content and >99% of input zeaxanthin was accounted for, even after refluxing in caustic solution for 40 hours!

[3] = Solubility of zeaxanthin in solvents (saturated solution, residue weighed); settings: organic solvent or mixture, thermodynamic from solid
Source text: In a procedure identical to that described in Example 6 up until almost the final methanol desolventization step, rather than desolventizing the zeaxanthin methanol slurry, it was transferred along with 1.5 parts water (by volume) to a continuous extractor containing 1 part dichloromethane. The slurry was extracted with dichloromethane for four hours at which time the dichloromethane solution in the receiver was decanted away from the crystalline zeaxanthin that had formed. The crystals thereby obtained were 95.1% pure all-trans-zeaxanthin. The yield obtained was only 12.6%, but this experiment was only intended to produce purified zeaxanthin crystals. […] These crystals were homogenized in a mortar and pestle and added to separate vials containing various solvents until a saturated solution was obtained. In order to measure the solubility of zeaxanthin in different solvents (shown in Table 7 below), a 5.0 ml portion of the saturated supernatant was filtered, desolventized, and the residues weighed.

[4] = Stability of zeaxanthin on spray drying of the methanol slurry; settings: spray dryer, inlet 120-160° C., outlet 60.5-87.2° C., nitrogen drying gas
Procedure: In an experiment identical to the procedure described in Example 6, the zeaxanthin/methanol slurry was desolventized using a spray dryer. […] Inlet temperatures ranged from 120° C. to 160° C., outlet temp was 60.5° C. to 87.2° C., and rotary atomizer was set at 5.5 bar. Nitrogen was used as the drying gas.

[5] = Stability of zeaxanthin in strongly basic (pH~14) aqueous methanolic potassium hydroxide at room temperature for 15 days
Procedure: A reaction was carried out using the same reactants at the same proportions under the same conditions as reaction 19 in the table in Example 1. The procedure was identical for the first 24 hrs as described for reaction 19, but after refluxing for 24 hours, the mixture was allowed to settle for 1 hour at which time the upper hexane layer was decanted away. The remaining lower phase was washed twice by partitioning with water (30 mL for each wash). In each case the lower aqueous phase was discarded and after the second water wash, methanol (75 mL) was added to the remaining upper phase. The mixture was then distilled to remove the remaining hexanes and then refluxed for five hours. The mixture was then allowed to cool and was centrifuged and decanted to afford a supernatant and a crude precipitate. […] The purity was 17.4%. In a separate experiment, the mixture was allowed to cool after distilling away hexane (i.e. the five hour reflux described above was not carried out) and placed in a separating funnel for 15 days at which time the supernatant was removed by decanting to afford a crude precipitate. […] The supernatant and both wash solutions were analyzed for zeaxanthin content and >99% of the input zeaxanthin was accounted for, even after sitting in caustic solution for two weeks!

SMILES: CC1=C(/C=C/C(C)=C/C=C/C(C)=C/C=C/C=C(C)/C=C/C=C(C)/C=C/C2=C(C)CC(O)CC2(C)C)C(C)(C)CC(O)C1 (stereo not shown) [Zeaxanthin, zeaxanthin]
- change in amounts of cis and trans isomers [1]: no change was observed
- input zeaxanthin accounted for ([2]; after refluxing in caustic solution for 40 hours, precipitate, supernatant and wash solution): > 99%
- stability to degradation ([2]; reflux in very basic aqueous methanolic solution): stable to degradation
- loss of zeaxanthin ([2]; saponification by the method of the present invention, Capsicum starting material): < 1%
- solubility ([3]; solvent Acetone): 1630 µg/mL (≈ 2870 µM)
- solubility ([3]; solvent DCM (dichloromethane)): 2960 µg/mL (≈ 5200 µM)
- solubility ([3]; solvent EtOAc (ethyl acetate)): 1070 µg/mL (≈ 1880 µM)
- solubility ([3]; solvent EtOH (ethanol)): 40 µg/mL (≈ 70.3 µM)
- solubility ([3]; solvent Hexane): 68 µg/mL (≈ 120 µM)
- solubility ([3]; solvent IPA (isopropyl alcohol)): 81 µg/mL (≈ 142 µM)
- solubility ([3]; solvent Methanol): 82 µg/mL (≈ 144 µM)
- solubility ([3]; solvent MtBE (methyl tert-butyl ether)): 726 µg/mL (≈ 1280 µM)
- solubility ([3]; solvent THF (tetrahydrofuran)): > 20400 µg/mL
- degradation of zeaxanthin [4]: No degradation of zeaxanthin was observed
- input zeaxanthin accounted for ([5]; after sitting in caustic solution for two weeks (15 days), precipitate, supernatant and wash solutions): > 99%
- degradation / loss of zeaxanthin ([5]; strongly basic solution (pH~14), room temperature, 15 days): no degradation of zeaxanthin was observed; also recorded: nor was any significant loss of zeaxanthin observed; also recorded: no loss in zeaxanthin content
